Data on 28 compounds can be found in ChEMBL document CHEMBL1151872, “Antagonists of the human A(2A) receptor. Part 5: Highly bio-available pyrimidine-4-carboxamides” (Bioorg Med Chem Lett, 2009).

Structures are written as SMILES. pEC50, pKi: −log10 of the molar value. Values after ≈ are worked out from the molar mass of the structure shown.

In one series the target is T1, Adenosine receptor A1 (Homo sapiens, UniProt P30542).
T1 sequence (P30542 whole entry): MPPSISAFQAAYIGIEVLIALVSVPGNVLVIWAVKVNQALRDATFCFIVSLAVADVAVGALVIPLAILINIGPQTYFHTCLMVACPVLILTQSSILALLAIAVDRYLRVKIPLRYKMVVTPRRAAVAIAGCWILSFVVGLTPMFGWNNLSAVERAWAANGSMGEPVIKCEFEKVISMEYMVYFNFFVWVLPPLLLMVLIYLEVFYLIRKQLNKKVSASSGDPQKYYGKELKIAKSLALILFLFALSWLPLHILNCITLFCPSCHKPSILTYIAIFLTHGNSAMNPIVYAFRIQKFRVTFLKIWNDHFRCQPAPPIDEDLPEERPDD

The target in series [1] is T2, Adenosine receptor A2a (Homo sapiens, UniProt P29274).
Description: Displacement of [3H]CGS21680 from human adenosine A2A receptor
The test system of the next series is Mus musculus. The experiment in a line: Reversal of haloperidol-induced locomotor movement deficit in po dosed mouse assessed as minimum effective dose administered 15 mins before testing. The settings on record: read-out: MED.
In the next series the target is T3, Adenosine receptor A2b (Homo sapiens, UniProt P29275).
T3 sequence (P29275 whole entry): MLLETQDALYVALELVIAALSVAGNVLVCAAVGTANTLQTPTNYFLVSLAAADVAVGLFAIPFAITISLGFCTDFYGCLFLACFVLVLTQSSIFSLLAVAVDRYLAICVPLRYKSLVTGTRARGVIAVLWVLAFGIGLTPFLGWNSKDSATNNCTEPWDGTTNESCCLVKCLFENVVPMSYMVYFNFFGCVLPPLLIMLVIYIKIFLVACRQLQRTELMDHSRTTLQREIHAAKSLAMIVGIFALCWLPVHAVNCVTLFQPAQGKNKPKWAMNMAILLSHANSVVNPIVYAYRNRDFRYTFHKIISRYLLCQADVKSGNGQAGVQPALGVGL
The series is described as follows: Binding affinity to adenosine A2B receptor.

The target in a further series is T4, Adenosine receptor A3 (Homo sapiens, UniProt P0DMS8).
T4 sequence (P0DMS8 whole entry): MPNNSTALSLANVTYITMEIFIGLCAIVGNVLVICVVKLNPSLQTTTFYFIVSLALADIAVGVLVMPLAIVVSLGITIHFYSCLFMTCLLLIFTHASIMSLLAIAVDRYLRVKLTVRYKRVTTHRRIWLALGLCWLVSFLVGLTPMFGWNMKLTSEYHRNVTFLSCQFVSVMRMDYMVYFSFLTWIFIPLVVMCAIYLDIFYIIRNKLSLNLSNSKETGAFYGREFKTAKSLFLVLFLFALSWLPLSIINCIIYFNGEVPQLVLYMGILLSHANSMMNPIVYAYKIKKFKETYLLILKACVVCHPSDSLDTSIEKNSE
The series is described as follows: Binding affinity to adenosine A3 receptor.

The target in series [2] is T2, Adenosine receptor A2a. This is another data set of the same source.
Description: Agonist activity against human adenosine A2A receptor assessed as calcium mobilization by FLIPR assay
Series [3] is filed under the species Homo sapiens. The series is described as follows: Selectivity for human adenosine A2A receptor over human adenosine A2B receptor.
For series [4], the species on record is Homo sapiens. The series is described as follows: Selectivity for human adenosine A2A receptor over human adenosine A3 receptor.
Series [5] can be described thus: Aqueous solubility of the compound. The series is classed as physicochemical.
The nature of series [6]: Half life in po dosed Sprague-Dawley rat plasma. The format is ADME, organism-based.
For another series, the system named is Brain. The series is described as follows: Drug uptake in Sprague-Dawley rat brain at 2 mg/kg, iv. More on the design: dose 2 mg/kg, route intravenous. The settings on record: in vivo. The series is classed as ADME, organism-based.
Series [7] can be described thus: Inhibition of Cytochrome P450. The format is ADME.
Series [8] can be described thus: Tmax in Sprague-Dawley rat plasma. The format is ADME, organism-based.
Series [9] can be described thus: Half life in po dosed Sprague-Dawley rat brain. The format is ADME, organism-based.

One may read the pKi as −log10 of the Ki, conventionally taken in molar units. Higher therefore signals a small Ki. What is called pEC50 is the EC50 on a negative log10 scale, so that one unit is a factor of ten. Low readings indicate a high EC50, high ones a low EC50. One may read the solubility as how much of the substance goes into solution per volume. A lower solubility goes with a poorly soluble substance. As a reminder, the half-life is how long it takes for the measured level to halve. In general, Tmax refers to the time at which the peak concentration occurs.

T2 sequence (P29274 whole entry): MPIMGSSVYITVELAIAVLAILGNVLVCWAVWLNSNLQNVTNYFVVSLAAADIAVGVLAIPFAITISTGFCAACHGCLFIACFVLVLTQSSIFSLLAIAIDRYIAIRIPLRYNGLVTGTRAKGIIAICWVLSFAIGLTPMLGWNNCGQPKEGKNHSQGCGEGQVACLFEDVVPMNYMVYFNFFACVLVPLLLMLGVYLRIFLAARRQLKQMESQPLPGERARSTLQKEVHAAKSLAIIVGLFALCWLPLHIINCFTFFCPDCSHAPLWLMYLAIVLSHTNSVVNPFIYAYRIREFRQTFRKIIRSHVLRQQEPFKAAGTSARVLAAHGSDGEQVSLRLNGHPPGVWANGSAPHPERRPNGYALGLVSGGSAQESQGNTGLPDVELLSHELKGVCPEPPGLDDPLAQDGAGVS
Description for Adenosine receptor A1: Displacement of [3H]CGS21680 from human adenosine A1 receptor

Regarding `Nc1nc(NC(=O)c2ccccc2)c([N+](=O)[O-])c(-c2ccco2)n1`, the pKi at Adenosine receptor A1 was 5.69; on Adenosine receptor A2a [1] it was 6.51.
Turning to `Nc1nc(C(=O)NCc2ccccn2)cc(-c2ccco2)n1`, the minimal effective dose in the series on Mus musculus was found to be 3 mg/kg. Moreover, the results for the pKi on Adenosine receptor A2b and at Adenosine receptor A3 were 6.12 and 5.86, respectively.
On to `Nc1nc(NC(=O)c2ccncc2)c([N+](=O)[O-])c(-c2ccco2)n1`, for which the pKi at Adenosine receptor A1 is 5.70; on Adenosine receptor A2a [1], 6.82.
Take `Nc1nc(C(=O)NCc2ccccc2Cl)cc(-c2ccco2)n1`: the pKi at Adenosine receptor A1 is 7.14; on Adenosine receptor A2a [1] it was 8.59; on Adenosine receptor A2b, 6.86; on Adenosine receptor A3 it was 6.38. In addition, the minimal effective dose with Mus musculus was determined as 30 mg/kg. This compound showed a pEC50 at Adenosine receptor A2a [2] not above 5.00.
For the compound `Cc1cccc(CNC(=O)c2cc(-c3ccco3)nc(N)n2)c1`, the pKi was 7.42 at Adenosine receptor A1, 8.59 at Adenosine receptor A2a [1], 6.40 at Adenosine receptor A2b and 5.82 at Adenosine receptor A3. In addition, in the series on Mus musculus, the minimal effective dose worked out at 3 mg/kg. For the same compound, the Ratio Ki in the series listed under Homo sapiens [3] and in the series listed under Homo sapiens [4] was less than 1000 each time. This compound showed a pEC50 at Adenosine receptor A2a [2] not above 5.00.
As for `COc1ccc(CNC(=O)c2cc(-c3ccco3)nc(N)n2)cc1`, the pKi was 6.80 at Adenosine receptor A1 and 7.10 at Adenosine receptor A2a [1].
`Nc1nc(NC(=O)c2ccccc2F)c([N+](=O)[O-])c(-c2ccco2)n1`: the values for the pKi on Adenosine receptor A1 and on Adenosine receptor A2a [1] were 6.51 and 7.64, respectively.
For `COc1ccccc1C(=O)Nc1nc(N)nc(-c2ccco2)c1[N+](=O)[O-]`, the pKi at Adenosine receptor A1 is 6.11; on Adenosine receptor A2a [1] it was 6.77.
For the compound `Nc1nc(C(=O)NCc2ccccc2F)cc(-c2ccco2)n1`, the pKi at Adenosine receptor A1 is 7.27; at Adenosine receptor A2a [1] it was 8.46; on Adenosine receptor A2b it was 7.17; on Adenosine receptor A3 it was 6.47. For the same compound, the minimal effective dose in the series on Mus musculus was 30 mg/kg. The compound further had a negative-log EC50 (pEC50) at Adenosine receptor A2a [2] not above 5.00.
As for `Nc1nc(C(=O)NCc2ccc(F)cc2)cc(-c2ccco2)n1`, the figures for the negative-log Ki (pKi) at Adenosine receptor A1 and on Adenosine receptor A2a [1] were 6.85 and 7.70, respectively.
`Cc1ccc(CNC(=O)c2cc(-c3ccco3)nc(N)n2)cc1`: the negative-log Ki (pKi) at Adenosine receptor A1 is 6.99; on Adenosine receptor A2a [1], 8.02; on Adenosine receptor A2b, 5.91; on Adenosine receptor A3 it was 5.73. The compound also had a pEC50 on Adenosine receptor A2a [2] not above 5.00.
Consider `Nc1nc(C(=O)NCc2ccc(Cl)cc2)cc(-c2ccco2)n1`, for which the pKi on Adenosine receptor A1 was 7.10; at Adenosine receptor A2a [1] it was 7.76.
In the case of `COc1ccccc1CC(=O)Nc1nc(N)nc(-c2ccco2)c1[N+](=O)[O-]`, the negative-log Ki (pKi) on Adenosine receptor A1 is 6.05; on Adenosine receptor A2a [1], 8.00.
For the compound `Nc1nc(C(=O)NCc2ccncc2)cc(-c2ccco2)n1`, the pKi is 5.87 at Adenosine receptor A1 and 6.41 on Adenosine receptor A2a [1].
On to `Nc1nc(C(=O)NCc2ccco2)cc(-c2ccco2)n1`, for which the values for the negative logarithm of the Ki (pKi) at Adenosine receptor A1 and on Adenosine receptor A2a [1] were 6.67 and 7.85, respectively.
For `COc1cccc(CNC(=O)c2cc(-c3ccco3)nc(N)n2)c1`, the pKi was 7.33 on Adenosine receptor A1, 8.21 on Adenosine receptor A2a [1], 6.92 at Adenosine receptor A2b and 5.96 at Adenosine receptor A3. Moreover, the pEC50 at Adenosine receptor A2a [2] was not above 5.00.
In the case of `Nc1nc(NC(=O)c2ccccc2OC(F)(F)F)c([N+](=O)[O-])c(-c2ccco2)n1`, the results for the pKi at Adenosine receptor A1 and at Adenosine receptor A2a [1] were 6.53 and 7.80, respectively.
As for `Nc1cccc(CNC(=O)c2cc(-c3ccco3)nc(N)n2)n1`, the pKi at Adenosine receptor A1 was 6.88; at Adenosine receptor A2a [1], 8.15; at Adenosine receptor A2b it was 6.35; at Adenosine receptor A3, 5.83. The minimal effective dose in the series with Mus musculus amounted to 1 mg/kg. Besides, the negative-log EC50 (pEC50) on Adenosine receptor A2a [2] is not above 5.00.
As for `COCc1cccc(CNC(=O)c2cc(-c3ccco3)nc(N)n2)n1`, the concentration in solution in [5] (solubility) came to 450 µM (≈ 153 µg/mL). Moreover, the pKi on Adenosine receptor A1 was 7.38; on Adenosine receptor A2a [1], 8.77; at Adenosine receptor A2b, 6.34; at Adenosine receptor A3 it was 5.76. The minimal effective dose in the series on Mus musculus came out at 0.1 mg/kg. The Ratio Ki in the series listed under Homo sapiens [3] and in the series filed under Homo sapiens [4] was less than 1000 each time. In addition, the half-life in series [6] and in series [9] was 1 h in each case. Moreover, at Adenosine receptor A2a [2], the pEC50 is not above 5.00. Also, the Drug uptake in the series with Brain is on record as 85%. Moreover, the Activity entry in series [7] is “Not Active”. Moreover, the Tmax in series [8] was 0.25 h.
On to `Nc1nc(C(=O)NCc2ccccc2)cc(-c2ccco2)n1`, for which the pKi was 7.24 on Adenosine receptor A1, 8.12 at Adenosine receptor A2a [1], 6.07 at Adenosine receptor A2b and 6.07 at Adenosine receptor A3. The same compound showed a pEC50 on Adenosine receptor A2a [2] not above 5.00.
Take `Nc1nc(C(=O)NCc2cccc(CO)n2)cc(-c2ccco2)n1`: the figures for the pKi on Adenosine receptor A1 and at Adenosine receptor A2a [1] were 6.59 and 8.03, respectively. The minimal effective dose with Mus musculus is 30 mg/kg.
As to `Cc1ccccc1CNC(=O)c1cc(-c2ccco2)nc(N)n1`, the pKi at Adenosine receptor A1 is 7.14; on Adenosine receptor A2a [1] it was 8.66; on Adenosine receptor A2b, 6.04; at Adenosine receptor A3 it was 6.23. Besides, the minimal effective dose in the series with Mus musculus is 30 mg/kg. The compound also gave a pEC50 on Adenosine receptor A2a [2] not above 5.00.
`COc1ccccc1CNC(=O)c1cc(-c2ccco2)nc(N)n1`: the pKi at Adenosine receptor A1 was 7.46; at Adenosine receptor A2a [1], 8.46; at Adenosine receptor A2b it was 6.81; at Adenosine receptor A3, 6.40. The minimal effective dose with Mus musculus came to 20 mg/kg. In addition, on Adenosine receptor A2a [2], the pEC50 was not above 5.00.
Consider `Nc1nc(NC(=O)c2cccnc2)c([N+](=O)[O-])c(-c2ccco2)n1`, for which the pKi at Adenosine receptor A1 was 5.45; at Adenosine receptor A2a [1] it was 6.66.
In the case of `CCn1c(=O)c2c(nc(/C=C/c3ccc(OC)c(OC)c3)n2C)n(CC)c1=O` [ISTRADEFYLLINE], the minimal effective dose with Mus musculus stood at 0.3 mg/kg.
As for `Nc1nc(C(=O)NCc2cccnc2)cc(-c2ccco2)n1`, the pKi on Adenosine receptor A1 was 6.91; on Adenosine receptor A2a [1] it was 8.03; on Adenosine receptor A2b it was 5.23; on Adenosine receptor A3, 5.19. Further, the Ratio Ki in the series filed under Homo sapiens [3] and in the series listed under Homo sapiens [4] was less than 1000 each time. Also, the pEC50 on Adenosine receptor A2a [2] was not above 5.00.
Turning to `Nc1nc(C(=O)NCc2cccc(Cl)c2)cc(-c2ccco2)n1`, the pKi on Adenosine receptor A1 is 7.91; on Adenosine receptor A2a [1] it was 8.43; on Adenosine receptor A2b it was 6.74; on Adenosine receptor A3 it was 6.29. Moreover, the pEC50 on Adenosine receptor A2a [2] is not above 5.00.
As for `Nc1nc(C(=O)NCc2cccc(F)c2)cc(-c2ccco2)n1`, the pKi on Adenosine receptor A1 is 7.41; on Adenosine receptor A2a [1], 8.32; on Adenosine receptor A2b, 6.03; on Adenosine receptor A3 it was 5.97. This compound showed a pEC50 at Adenosine receptor A2a [2] not above 5.00.
